In PMC12670160, “A drug-repurposing screen of FDA- and EMA-approved drugs identifies two NF-κB inhibitors active against eumycetoma” (Journal of Antimicrobial Chemotherapy, 2025):
≈ marks a conversion by molar mass, not a printed value. Structures can show the parent of a compound that is named as a salt. Where two headings read alike, the source gives them in different places.

Assays:
[1] = tested on: M. mycetomatis strain mm55; conditions: 96 h, 2 µM
M. mycetomatis = assay: In vitro susceptibility, averages over M. mycetomatis isolates (average metabolic activity at 2 µM, mean MIC); type: cell-based; conditions: Madurella mycetomatis, 96 h, 4 days at 37°C, CellTiter-Glo, average of 3 isolates, 20% or below = inhibition
Experimental: M. mycetomatis isolate MM55 was used to screen the Oncode library. This strain was kindly provided by Prof. […] The three M. mycetomatis isolates were identified by ITS sequencing and maintained at −80°C at Erasmus MC. Prior to in vitro screening, isolates were cultured on Sabouraud agar plates (BD, Erembodegem, Belgium) at 37°C.
The Oncode Drug Repurposing library was based on the drug repurposing library from the Drug Repurposing Hub of the Broad Institute and recreated by the Oncode institute.[13] […] Each well of the 384-well plates contained 0.6 µL of a 200 µM stock concentration of compound, resulting in a final concentration of 2 µM when the fungus was added. […] Furthermore, this concentration could also be reached in the G. mellonella larvae.[8],[11] The prepared 384-well plates were transferred on dry ice to the Erasmus MC and stored at −80°C until they were screened.
Each plate also contained a growth control (60 µL of M. mycetomatis hyphal suspension, plus 0.6 µL of DMSO) and a negative control (60 µL of culture medium, plus 0.6 µL of DMSO). Plates were then incubated for 4 days at 37°C, after which 30 µL of CellTiter-Glo 3D Cell Viability reagent was added to every well.[19] After 25 min of incubation at room temperature, the luminescence was measured with a CytoFluor Series 4000 luminometer (PerSeptive Biosystems, Framingham, MA, USA). To determine the metabolic activity, the following formula was used:
Percentagemetabolicactivity=(Absorbancetestluminensence−AbsorbanceNCluminensence/AbsorbanceGCluminensence−AbsorbanceNCluminensence)×100
where, GC is growth control and NC is negative control. The luminescence measured for the GC is considered as 100% metabolic activity. The luminescence for the NC is considered as 0% metabolic activity.

[2] = tested on: M. mycetomatis strain mm55; assay: IC50 and MIC determination, CellTiter-Glo, strain mm55; type: cell-based, Madurella mycetomatis; conditions: Madurella mycetomatis; for MIC: concentration with complete growth inhibition; for IC50: concentration inhibiting 50% of fungal hyphae growth
M. mycetomatis strain P1 = assay: IC50 and MIC determination, CellTiter-Glo, strain P1; type: cell-based, Madurella mycetomatis; conditions: Madurella mycetomatis, P1
M. mycetomatis strain I1 = assay: IC50 and MIC determination, CellTiter-Glo, strain I1; type: cell-based, Madurella mycetomatis; conditions: Madurella mycetomatis, I1

Molecule | % viability ([1]; m. mycetomatis hyphae) [%] | other results
CC(C)NCCCn1c(Sc2cc3c(cc2I)OCO3)nc2c(N)ncnc21 [ONC0002276, puh71] | 67.16 | –
CC[C@@](C)(Nc1ccnc(-c2c[nH]c3ncccc23)n1)C(=O)NCC(F)(F)F [ONC0001022, decernotinib] | 66.72 | –
CCCC(C)C1(CC)C(=O)NC(=S)NC1=O (centres unmarked) [ONC0001983, thiopental] | 75.11 | –
CCC(=O)O[C@@H]1CC(=O)O[C@H](C)C/C=C/C=C/[C@H](O)[C@H](C)C[C@H](CC=O)[C@H](O[C@@H]2O[C@H](C)[C@@H](O[C@H]3C[C@@](C)(O)[C@@H](OC(=O)CC)[C@H](C)O3)[C@H](N(C)C)[C@H]2O)[C@H]1OC [ONC0000323, midecamycin] | 88.92 | –
Clc1ccccc1C(c1ccccc1)(c1ccccc1)n1ccnc1 [Clotrimazole] | – | activity at 2 µM (M. mycetomatis): 4%; MIC [2]: 1 µM (≈ 0.345 µg/mL); MIC (M. mycetomatis strain P1): 1 µM (≈ 0.345 µg/mL); MIC (M. mycetomatis strain I1): 0.5 µM (≈ 0.172 µg/mL)
CCC1/C=C(\C)CC(C)CC(OC)C2OC(O)(C(=O)C(=O)N3CCCCC3C(=O)OC(/C(C)=C/C3CCC(O)C(OC)C3)C(C)C(O)CC1=O)C(C)CC2OC (centres unmarked) [ONC0004338, ascomycin fk520] | 150.4 | –
O=c1ncn2nc(Sc3ccc(F)cc3F)ccc2c1-c1c(Cl)cccc1Cl [ONC0004865, vx745] | 118.9 | –
CC1(C)CN(C(=O)c2ccc(-c3cccc4nc(NC(=O)C5CC5)nn34)cc2)C1 [ONC0001278, solcitinib] | 60.54 | –
CC(C)(C)C#Cc1cc(N(C(=O)[C@H]2CC[C@H](C)CC2)[C@H]2CC[C@@H](O)CC2)c(C(=O)O)s1 [ONC0004853, lomibuvir vx222 vch222] | 92.92 | –
C=CCOC(Cn1ccnc1)c1ccc(Cl)cc1Cl (centres unmarked) [Enilconazole sulphate] | – | activity at 2 µM (M. mycetomatis): 1.3%; IC50 [2]: 1.25 µM; MIC [2]: 2 µM; IC50 (M. mycetomatis strain P1): 0.56 µM; MIC (M. mycetomatis strain P1): 1 µM; IC50 (M. mycetomatis strain I1): 0.42 µM; MIC (M. mycetomatis strain I1): 0.5 µM
C=C1CCN([C@H](C)[C@](O)(Cn2cncn2)c2ccc(F)cc2F)CC1 [Efinaconazole] | – | activity at 2 µM (M. mycetomatis): 0%; IC50 [2]: 0.04 µM; MIC [2]: 0.06 µM (≈ 0.0209 µg/mL); IC50 (M. mycetomatis strain P1): < 0.03 µM; MIC (M. mycetomatis strain P1): 0.03 µM (≈ 0.0105 µg/mL); IC50 (M. mycetomatis strain I1): 0.05 µM; MIC (M. mycetomatis strain I1): 0.06 µM (≈ 0.0209 µg/mL)
O=C(O)CCCc1ccc(N(CCCl)CCCl)cc1 [ONC0000730, chlorambucil] | 84.26 | –
CC(C)(CO)c1cc2cc(NC(=O)C3(c4ccc5c(c4)OC(F)(F)O5)CC3)c(F)cc2n1C[C@@H](O)CO [ONC0004399, vx661] | 112.4 | –
c1ccc2oc(C3=NCCN3)cc2c1 [ONC0002719, 2bfi] | 76.35 | –
CC(C)CN(C[C@@H](O)[C@H](Cc1ccccc1)NC(=O)O[C@H]1CCOC1)S(=O)(=O)c1ccc(N)cc1 [ONC0003406, amprenavir] | 51.58 | –
Clc1ccc(C(Cn2ccnc2)OCc2ccsc2Cl)c(Cl)c1 (centres unmarked) [Tioconazole] | – | activity at 2 µM (M. mycetomatis): 3.2%; IC50 [2]: 1.24 µM; MIC [2]: 2 µM (≈ 0.775 µg/mL); IC50 (M. mycetomatis strain P1): 0.39 µM; MIC (M. mycetomatis strain P1): 0.5 µM (≈ 0.194 µg/mL); IC50 (M. mycetomatis strain I1): 0.33 µM; MIC (M. mycetomatis strain I1): 0.5 µM (≈ 0.194 µg/mL)
CC[C@@]1(O)C(=O)OCc2c1cc1n(c2=O)Cc2cc3cc(O)ccc3nc2-1 [ONC0005199, 10hydroxycamptothecin] | 143.5 | –
C=C(c1ccccc1OCc1cccc(Cl)c1)n1ccnc1 [Cloconazole HCl] | – | activity at 2 µM (M. mycetomatis): 1.7%; IC50 [2]: 0.85 µM; MIC [2]: 1 µM; IC50 (M. mycetomatis strain P1): 0.74 µM; MIC (M. mycetomatis strain P1): 1 µM; IC50 (M. mycetomatis strain I1): 0.41 µM; MIC (M. mycetomatis strain I1): 0.5 µM
CCC[C@H](NC(=O)[C@@H]1[C@H]2CCC[C@H]2CN1C(=O)[C@@H](NC(=O)[C@@H](NC(=O)c1cnccn1)C1CCCCC1)C(C)(C)C)C(=O)C(=O)NC1CC1 [ONC0004652, telaprevir vx950] | 71.4 | –
CC(C)(O)CNc1nc(Nc2ccnc(C(F)(F)F)c2)nc(-c2cccc(C(F)(F)F)n2)n1 [ONC0001138, enasidenib] | 67.01 | –
Cc1cnc(Nc2ccc(F)cc2Cl)nc1-c1c[nH]c(C(=O)N[C@H](CO)c2cccc(Cl)c2)c1 [ONC0005411, vx11e] | 117 | –
CC(C)OC(=O)C(C)NP(=O)(COC(C)Cn1cnc2c(N)ncnc21)Oc1ccccc1 (centres unmarked) [ONC0004548, tenofovir alafenamide gs7340] | 45.02 | –
CC(C)(C)c1cc(C(C)(C)C)c(NC(=O)c2c[nH]c3ccccc3c2=O)cc1O [ONC0004880, ivacaftor vx770] | 126.9 | –
CCO[C@H]1OC(=O)C[C@@H]1NC(=O)[C@@H]1CCCN1C(=O)[C@@H](NC(=O)c1ccc(N)c(Cl)c1)C(C)(C)C [ONC0004605, belnacasan vx765] | 74.26 | –

Molecule | % viability ([1]; m. mycetomatis hyphae) [%] | other results
NC(=O)c1ccc(N(C(N)=O)c2c(F)cccc2F)nc1-c1ccc(F)cc1F [ONC0004787, vx702] | 67.05 | –
O=C(O)[C@]1(Cc2cccc(Nc3nccs3)n2)CC[C@@H](Oc2cccc(Cl)c2F)CC1 [ONC0005246, mk5108 vx689] | 132.5 | –
O=P1(N(CCCl)CCCl)NCCCO1 (centres unmarked) [ONC0000336, cyclophosphamide] | 62 | –
COc1cccc([C@]2(O)CCCC[C@H]2CN(C)C)c1 [ONC0004178, tramadol hydrochloride] | 135.3 | –
CC(=O)Oc1ccccc1C(=O)Nc1ncc([N+](=O)[O-])s1 [ONC0002436, nitazoxanide] | 87.75 | –
Cc1ccc(NC(=O)C2(c3ccc4c(c3)OC(F)(F)O4)CC2)nc1-c1cccc(C(=O)O)c1 [ONC0004867, vx809 lumacaftor] | 108.5 | –
O=C(Nc1nc2cccc(-c3ccc(CN4CCS(=O)(=O)CC4)cc3)n2n1)C1CC1 [ONC0001023, filgotinib] | 70.26 | –
CCN(CC)C(C)C(=O)c1ccccc1 (centres unmarked) [ONC0002292, amfepramone] | 71.71 | –
COC(=O)[C@@H]1C[C@H](OC(C)=O)C(=O)[C@H]2[C@@]1(C)CC[C@H]1C(=O)O[C@H](c3ccoc3)C[C@]21C [ONC0003459, salvinorin a] | 35.37 | –
Cc1cc(Nc2cc(N3CCN(C)CC3)nc(Sc3ccc(NC(=O)C4CC4)cc3)n2)[nH]n1 [ONC0004696, vx680 mk0457 tozasertib] | 120.2 | –
CC[C@H]1OC(=O)[C@H](C)[C@@H](O[C@H]2C[C@@](C)(OC)[C@@H](O)[C@H](C)O2)[C@H](C)[C@@H](O[C@@H]2O[C@H](C)C[C@H](N(C)C)[C@H]2O)[C@](C)(O)C[C@@H](C)[C@@H]2N[C@@H](COCCOC)O[C@H]([C@H]2C)[C@]1(C)O [ONC0005551, dirithromycin] | 98.9 | –
Cc1sc2c(c1C)C(c1ccc(Cl)cc1)=N[C@@H](CC(=O)Nc1ccc(O)cc1)c1nnc(C)n1-2 [ONC0005184, otx015] | 99.78 | –
CS[C@H]1SC[C@H]2C(=O)N(C)[C@@H](C(C)C)C(=O)OC[C@@H](NC(=O)c3cnc4ccccc4n3)C(=O)N[C@@H](C)C(=O)N(C)[C@@H]1C(=O)N(C)[C@@H](C(C)C)C(=O)OC[C@@H](NC(=O)c1cnc3ccccc3n1)C(=O)N[C@@H](C)C(=O)N2C [ONC0004195, echinomycin] | 114.7 | –
C[N+]12CCC(CC1)C(OC(=O)C(O)(c1ccccc1)c1ccccc1)C2 (centres unmarked) [ONC0000315, clidinium bromide] | 88.97 | –
gonadorelin acetate [ONC0002245] | – | % viability ([1]; primary screen, metabolic activity vs growth control, inhibitor): 141.9%
CC(C)(C)c1ccc(-c2nc3ccccc3[nH]2)cc1 [ONC0004834, zln005] | 87.04 | –
Cn1c(=O)n(-c2ccc(C(C)(C)C#N)cc2)c2c3cc(-c4cnc5ccccc5c4)ccc3ncc21 [ONC0005249, dactolisib bez235 nvpbez235] | 133.4 | –
COc1cc2c(c(OC)c1OC)-c1ccc(OC)c(=O)cc1[C@@H](NC(C)=O)CC2 [ONC0000317, colchicine] | 73.45 | –
O=C(O)C[C@H]1CC[C@H](c2ccc(-c3ccc(Nc4ccc(C(F)(F)F)nc4)cn3)cc2)CC1 [ONC0001945, pradigastat] | 103.8 | –
CNCc1ccc(-c2cc(-c3nc(-c4ccc(S(=O)(=O)C(C)C)cc4)cnc3N)on2)cc1 [ONC0005048, ve822] | 77.72 | –
COc1ccc2c(O[C@@H]3C[C@H]4C(=O)N[C@]5(C(=O)NS(=O)(=O)C6CC6)C[C@H]5/C=C\CCCCN(C)C(=O)[C@@H]4C3)cc(-c3nc(C(C)C)cs3)nc2c1C [ONC0000991, simeprevir] | 85.85 | –
COc1cc(NC(=O)Nc2cccc(CNC(=O)O[C@H]3CCOC3)c2)ccc1-c1cnco1 [ONC0001842, merimepodib] | 78.29 | –
CCOP(=S)(OCC)Oc1cc(C)nc(C(C)C)n1 [ONC0003874, dimpylate] | 60.75 | –
